The record followed here is patent EP1020434A1, “3-AMIDINOANILINE DERIVATIVES, ACTIVATED BLOOD COAGULATION FACTOR X INHIBITORS, AND INTERMEDIATES FOR PRODUCING BOTH” (priority 1997, dated 1999).

The target in data set [1] is T1, human activated blood coagulation factor X (Homo sapiens, UniProt P00742).
T1 construct: purchased Calbiochem Corporation
Briefly: Measurement of inhibitory activity for activated blood coagulation factor X (chromogenic substrate S-2222). It counts as biochemical. The protocol:
Measurement of inhibitory activity for activated blood coagulation factor X
Five µl of dimethylsulfoxide solution of test compound, 375 µl of tris-hydrochloric acid buffer (pH 8.4) and 100 µl of 1 mM S-2222 (Daiichi Pure Chemicals) aqueous solution were mixed. Then 20 µl of 0.6 U/ml human activated blood coagulation factor X (Calbiochem Corporation) in gelatin-glycine buffer was added and the mixture was incubated for 10 minutes at 37 °C. The reaction was terminated with the addition of 100 µl of 60 % acetic acid and absorbance (405 nm) was measured.
The group without the test compound was defined as control and the group without human activated blood coagulation factor X was defined as blank.

A further data set has as its target T2, human thrombin (Homo sapiens, UniProt P00734).
T2 construct: human thrombin (Sigma Chemical Company); purchased Sigma Chemical Company
Briefly: Measurement of inhibitory activity for thrombin (chromogenic substrate S-2238). It is filed as biochemical. The protocol:
Measurement of inhibitory activity for thrombin
Five µl of dimethylsulfoxide solution of test compound, 375 µl of tris-hydrochloric acid buffer (pH 8.4) and 100 µl of 1 mM S-2238 (Daiichi Pure Chemicals) aqueous solution were mixed. Then 20 µl of 2.0 U/ml human thrombin (Sigma Chemical Company) in gelatin-glycine buffer was added and the mixture was incubated for 10 minutes at 37 °C. The reaction was terminated with the addition of 100 µl of 60 % acetic acid and absorbance (405 nm) was measured.
The group without the test compound was defined as control and the group without human thrombin was defined as blank. […]

In another data set the test system is normal human plasma. Briefly: Measurement of anticoagulation effects (plasma prothrombin time). It counts as biochemical. The conditions noted are these: CT2, concentration that prolonged the clotting time (prothrombin time) of control by 2 times. The protocol:
Measurement of anticoagulation effects (plasma prothrombin time)
Two µl of dimethylsulfoxide solution of test compound which was put in a process tube was incubated at 37 °C, and 50 µl of normal human plasma (George King Bio-Medical Inc.) was mixed. One minute later, 100 µl of plasma prothrombin time reagent (Neoplastin Plus®, Boehringer Mannheim) was added into the mixture. Prothrombin time was measured with ST4 (Boehringer Mannheim).
The group without the test compound was defined as control. The concentration of test compound that prolonged the clotting time of control by 2 times (CT2) was obtained and this value was used as the index of anticoagulation activity.

Another data set relates to Male Wistar rats. Briefly: Acute toxicity test. It is filed as in vivo. The protocol: Male Wistar rats aged 7 weeks (SLC) were divided into several groups consisting of 5 rats. The test compound was dissolved at the concentration that became the administration volume as 2.5 ml/kg. The solution was administered through the tail vein at an infusion rate of 1 ml/minute. Observations were performed at constant intervals, and survival rate was judged for 24 hours.

The mark [2] stands for this setting: IC50, concentration showing 50 % inhibition of control, 10 minutes at 37 °C, pH 8.4, read-out: Inhibitory activity for activated blood coagulation factor X.
Where [3] appears, read: IC50, concentration showing 50 % inhibition of control, 10 minutes at 37 °C, pH 8.4, read-out: Inhibitory activity for thrombin.

Where a name gives a salt, the structure may show the parent alone. Read-outs that look alike come from different tables or passages of the source.

T1 sequence (P00742 235-488 limits assumed): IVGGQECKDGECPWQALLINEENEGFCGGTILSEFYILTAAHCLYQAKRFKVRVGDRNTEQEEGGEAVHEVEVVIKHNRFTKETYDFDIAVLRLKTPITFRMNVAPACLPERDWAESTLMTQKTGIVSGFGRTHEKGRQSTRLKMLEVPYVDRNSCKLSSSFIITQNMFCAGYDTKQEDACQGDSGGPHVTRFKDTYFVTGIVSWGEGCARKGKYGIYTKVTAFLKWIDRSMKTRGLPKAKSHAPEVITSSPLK
T1 sequence (P00742 41-179 partner limits assumed): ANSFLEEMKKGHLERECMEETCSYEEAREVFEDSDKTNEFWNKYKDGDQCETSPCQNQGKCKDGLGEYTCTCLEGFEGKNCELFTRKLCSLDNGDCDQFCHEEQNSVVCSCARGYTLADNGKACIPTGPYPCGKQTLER

Take `CC(C)=CCN(CC(=O)Nc1ccc(OC(C)C)cc1)c1cccc(C(=N)N)c1.Cl` [Compound 22, 2-[N-(3-Amidinophenyl)-N-(3-methyl-2-butenyl)amino]-N-(4-isopropoxyphenyl)acetamide hydrochloride]: the results for the IC50 (in data set [1] (setting [2]); at human thrombin (setting [3])) were 0.015 µM and 13 µM, respectively. Also, the Anticoagulation effect with normal human plasma was found to be 0.29 µM.
For `CC(=N)N1CCC(c2ccc(NC(=O)CN(Cc3cccc(O)c3)c3cccc(C(=N)N)c3)cc2)CC1.Cl.Cl` [Compound 52, 2-[N-(3-Amidinophenyl)-N-(3-hydroxybenzyl)amino]-N-[4-[1-(1-iminoethyl)piperidin-4-yl]phenyl]acetamide dihydrochloride], in that order: 0.016 µM, 77 µM and 0.17 µM.
The like results for `CC(=N)N1CCC(c2ccc(NC(=O)CN(CC=C(C)C)c3cccc(C(=N)N)c3)cc2)CC1.Cl.Cl` [Compound 55, 2-[N-(3-Amidinophenyl)-N-(3-methyl-2-butenyl)amino]-N-[4-[1-(1-iminoethyl)piperidin-4-yl]phenyl]acetamide dihydrochloride] were, in that order, 0.004 µM, 15 µM and 0.091 µM.
Regarding `CC(=N)N1CCC(Oc2ccc(NC(=O)CN(Cc3ccccc3)c3cccc(C(=N)N)c3)cc2)CC1` [Compound 58, 2-[N-(3-Amidinophenyl)-N-benzylaminol-N-[4-[1-(1-imino-ethyl)piperidin-4-yloxy]phenyl]acetamidedihydrochloride], the IC50 turned out to be 0.042 µM in data set [1] and 100 µM on human thrombin. In the data set with normal human plasma, the Anticoagulation effect is 0.24 µM.
Take `CC(=N)N1CCC(c2ccc(NC(=O)CN(Cc3cccc(OCC(=O)O)c3)c3cccc(C(=N)N)c3)cc2)CC1.Cl.Cl` [Compound 62, 2-[N-(3-Amidinophenyl)-N-(3-carboxymethyloxybenzyl)amino]-N-[4-[1-(1-iminoethyl)piperidin-4-yl]phenyl]acetamide dihydrochloride]: the IC50 at human thrombin (setting [3]) is 206 µM. In addition, in the data set with normal human plasma, the Anticoagulation effect came to 0.21 µM. Besides, in the data set on Male Wistar rats (30 mg/kg through the tail vein, groups of 5 rats, survival judged for 24 hours), the Death case was 0/5. The “death in acute toxicity test” value in the data set with Male Wistar rats (rats, intravenous administration, dose of 30 mg/kg) is “no death was observed”.
Turning to `CC(=N)N1CCC(c2ccc(NC(=O)CN(Cc3cccc4ccccc34)c3cccc(C(=N)N)c3)cc2)CC1` [Compound 65, 2-[N-(3-Amidinophenyl)-N-(1-naphthylmethyl)amino]-N-[4-[1-(1-iminoethyl)piperidin-4-yl]phenyl]acetamide dihydrochloride], the IC50 in data set [1] (setting [2]) was 0.008 µM; at human thrombin (setting [3]), 42 µM.
In the case of `CC(=N)N1CCC(c2ccc(NC(=O)CN(Cc3nc[nH]c3C)c3cccc(C(=N)N)c3)cc2)CC1.Cl.Cl` [Compound 74, 2-[N-(3-Amidinophenyl)-N-(5-methylimidazol-4-ylmethyl)amino]-N-[4-[1-(1-iminoethyl)piperidin-4-yl]phenyl]acetamide dihydrochloride], the IC50 in data set [1] (setting [2]) was found to be 0.019 µM; at human thrombin (setting [3]), 177 µM. Besides, the Anticoagulation effect with normal human plasma is listed as 0.30 µM.
For the compound `CC(=N)N1CCC(Oc2ccc(NC(=O)CNc3cccc(C(=N)N)c3)cc2)CC1` [Compound 79, 2-(3-Amidinophenylamino)-N-[4-[1-(1-iminoethyl)piperidin-4-yloxy]phenyl]acetamide dihydrochloride], the IC50 in data set [1] (setting [2]) came to 0.096 µM; at human thrombin (setting [3]), 308 µM.
